Measured values published in ChEMBL document CHEMBL1201862, “PubChem BioAssay data set” (2004).
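96-well plates; 48 h exposure; 5 concentrations. Endpoints by linear interpolation between flanking doses. Not reached: highest tested concentration assigned. GI50 marks 50% less growth.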 Calls of active or inactive are those of the source. No stated cut-off is given here; in the data, active = GI50 up to about 1.1 µM and inactive = higher.

Assays:
Assay in all cases: growth of human tumour cells (NCI), 48 h
A549 = system: A549
HCT-15 = system: HCT-15
K562 = system: K562
KM-20L2 = system: KM-20L2
NCI-H522 = system: NCI-H522
OVCAR-3 = system: OVCAR-3
OVCAR-8 = system: OVCAR-8
SK-MEL-2 = system: SK-MEL-2
SNB-75 = system: SNB-75
SW-620 = system: SW-620
U-251 = system: U-251
UACC-257 = system: UACC-257
DMS-273 = system: DMS-273
SK-OV-3 = system: SK-OV-3
UACC-62 = system: UACC-62
CCRF-CEM = system: CCRF-CEM
SK-MEL-5 = system: SK-MEL-5
DU-145 = system: DU-145
Hs-578T = system: Hs-578T
MDA-MB-231 = system: MDA-MB-231

Row | Structure (SMILES) | GI50 (A549) | GI50 (HCT-15) | GI50 (K562) | GI50 (KM-20L2) | GI50 (NCI-H522) | GI50 (OVCAR-3) | GI50 (OVCAR-8) | GI50 (SK-MEL-2) | GI50 (SNB-75) | GI50 (SW-620) | GI50 (U-251) | GI50 (UACC-257) | GI50 (DMS-273) | GI50 (SK-OV-3) | GI50 (UACC-62) | GI50 (CCRF-CEM) | GI50 (SK-MEL-5) | GI50 (DU-145) | GI50 (Hs-578T) | GI50 (MDA-MB-231)
1 | CCOC(=O)C1S/C(=N\c2cccc(Cl)c2C)N=C1C (centres undefined) | 21.9 µM (inactive) | > 10 µM | 34.1 µM (inactive) | 17.3 µM (inactive) | 18.8 µM (inactive) | 22.9 µM (inactive) | 21.3 µM (inactive) | 19.5 µM (inactive) | 16.3 µM (inactive) | 28.4 µM (inactive) | 15.1 µM (inactive) | > 10 µM (inactive) |  |  |  |  |  |  |  | 
2 | CCc1nnc(S)n1/N=C/c1ccc(-c2ccc([N+](=O)[O-])cc2)o1 | > 100 µM (inactive) | > 100 µM | > 100 µM (inactive) | > 100 µM (inactive) | > 100 µM (inactive) | > 100 µM (inactive) | > 100 µM (inactive) | > 100 µM (inactive) | > 100 µM (inactive) | > 100 µM (inactive) | > 100 µM (inactive) | > 100 µM (inactive) | > 100 µM (inactive) | > 100 µM (inactive) | > 100 µM (inactive) |  |  |  |  | 
3 | O=c1nc(NC(c2ccccc2)(c2ccccc2)c2ccccc2)ccn1CCCl | 30 µM (inactive) | 35.4 µM | 21.8 µM (inactive) | 16.4 µM (inactive) | 22.8 µM (inactive) | 13.2 µM (inactive) | 16.2 µM (inactive) | 15.8 µM (inactive) | 17.6 µM (inactive) | 24.1 µM (inactive) | 15.3 µM (inactive) | > 10 µM (inactive) |  |  |  |  |  |  |  | 
4 | COC12CCC(C(C(=O)c3ccccc3)=C1C(=O)c1ccccc1)C(O)C2 (centres undefined) | > 100 µM (inactive) | > 100 µM | > 100 µM (inactive) |  | > 100 µM (inactive) | > 100 µM (inactive) | > 100 µM (inactive) | > 100 µM (inactive) | > 100 µM (inactive) | > 100 µM (inactive) |  | > 100 µM (inactive) | > 100 µM (inactive) | > 100 µM (inactive) | > 100 µM (inactive) | > 100 µM (inactive) | > 100 µM (inactive) |  |  | 
5 | COC1=CC(=O)C2C(C1=O)[C@@H]1c3ccccc3C[C@H]21 (some centres undefined) | > 100 µM (inactive) | > 100 µM | > 100 µM (inactive) |  | > 100 µM (inactive) | > 100 µM (inactive) | 85.3 µM (inactive) | > 100 µM (inactive) | 89.9 µM (inactive) | > 100 µM (inactive) | > 100 µM (inactive) | > 100 µM (inactive) | > 100 µM (inactive) | > 100 µM (inactive) | > 100 µM (inactive) | > 100 µM (inactive) | > 100 µM (inactive) |  |  | 
6 | O=c1cc(-c2ccccc2)oc2cc(OCC(O)COc3ccc4c(=O)cc(-c5ccccc5)oc4c3)ccc12 | > 100 µM (inactive) | 89.1 µM | 42.8 µM (inactive) | > 100 µM (inactive) | 28.4 µM (inactive) | 32.5 µM (inactive) | 19.1 µM (inactive) | 21.5 µM (inactive) |  | 61.2 µM (inactive) | 20.8 µM (inactive) | > 100 µM (inactive) | 41.9 µM (inactive) | 16.8 µM (inactive) | > 100 µM (inactive) | 33 µM (inactive) | > 100 µM (inactive) |  |  | 
7 | CCCCSC1CCSc2c1ccc1ccccc21 (centres undefined) | 77.8 µM (inactive) | 6.32 µM | 44.9 µM (inactive) | 53.8 µM (inactive) |  |  | > 100 µM (inactive) | > 100 µM (inactive) |  |  | > 100 µM (inactive) |  |  | > 100 µM (inactive) | > 100 µM (inactive) |  | > 100 µM (inactive) |  |  | 
8 | COC(=O)C1=C(C(=O)OC)C2(C)Nc3ccccc3C2=C(c2ccccc2)C1 (centres undefined) | 20.4 µM (inactive) | 20.8 µM | 16.1 µM (inactive) | 28.1 µM (inactive) | 15.8 µM (inactive) | 17.9 µM (inactive) | 25 µM (inactive) | 17.8 µM (inactive) | 2.13 µM (inactive) | 26.5 µM (inactive) | 19.8 µM (inactive) | 17.9 µM (inactive) | 21.4 µM (inactive) |  | 16.7 µM (inactive) | 19.4 µM (inactive) | 15.5 µM (inactive) |  |  | 
9 | CCN(CC)c1cccc2c1/C(=N/O)CCCC2 | > 100 µM (inactive) | > 100 µM | 46.8 µM (inactive) | > 100 µM (inactive) | > 100 µM (inactive) |  | > 100 µM (inactive) | > 100 µM (inactive) | 84.1 µM (inactive) | > 100 µM (inactive) | > 100 µM (inactive) | 65 µM (inactive) | > 100 µM (inactive) | > 100 µM (inactive) | > 100 µM (inactive) | > 100 µM (inactive) | 70.8 µM (inactive) |  |  | 
10 | CCC1=C(C)/C(=C/c2[nH]c(C(Br)Br)c(CC)c2C)N=C1C(Br)Br | 25.2 µM (inactive) | 28.2 µM | 24.2 µM (inactive) | 41 µM (inactive) | 13 µM (inactive) | 23.2 µM (inactive) | 26.6 µM (inactive) | 38 µM (inactive) | 21.6 µM (inactive) | 33.1 µM (inactive) | 22.5 µM (inactive) | 19.9 µM (inactive) |  | 25.4 µM (inactive) | 31 µM (inactive) | 13.6 µM (inactive) | 16.6 µM (inactive) |  |  | 
11 | NNC(=O)CNC(=O)c1ccc(Cl)cc1Cl | > 100 µM (inactive) | 32.7 µM | > 100 µM (inactive) | > 100 µM (inactive) | > 100 µM (inactive) | > 100 µM (inactive) | > 100 µM (inactive) |  | > 100 µM (inactive) | 15.8 µM (inactive) | 39.6 µM (inactive) | > 100 µM (inactive) | > 100 µM (inactive) | > 100 µM (inactive) | > 100 µM (inactive) | > 100 µM (inactive) | > 100 µM (inactive) |  |  | 
12 | O=[N+]([O-])c1ccc(N2N=C(c3ccc(NCc4nc5ccccc5[nH]4)cc3)CC2c2ccco2)cc1 (centres undefined) | 34.8 µM (inactive) | 21.3 µM | 20.4 µM (inactive) |  | 15.5 µM (inactive) | 21.8 µM (inactive) | 18.1 µM (inactive) | > 10 µM (inactive) | 27.9 µM (inactive) | 34.7 µM (inactive) | 29.8 µM (inactive) |  | 21.2 µM (inactive) | 82.2 µM (inactive) | 19.5 µM (inactive) | 21.6 µM (inactive) | 14.2 µM (inactive) |  |  | 
13 | NC(=O)C(N)=O | > 100 µM (inactive) | > 100 µM | > 100 µM (inactive) | > 100 µM (inactive) | > 100 µM (inactive) | > 100 µM (inactive) | > 100 µM (inactive) | > 100 µM (inactive) |  | > 100 µM (inactive) | > 100 µM (inactive) | > 100 µM (inactive) | > 100 µM (inactive) | > 100 µM (inactive) | > 100 µM (inactive) | > 100 µM (inactive) | > 100 µM (inactive) |  |  | 
14 | O=C(OC1CC(n2cc(F)c(=O)[nH]c2=O)OC1CSC(=O)c1ccccc1)c1ccccc1 (centres undefined) | 29.2 µM (inactive) | 34.2 µM | 54.3 µM (inactive) | 18.7 µM (inactive) | 19.5 µM (inactive) | 23.4 µM (inactive) | 34.8 µM (inactive) | 48.5 µM (inactive) | 19.4 µM (inactive) | 30.8 µM (inactive) | 17.6 µM (inactive) | 29.2 µM (inactive) |  | > 100 µM (inactive) | 36.4 µM (inactive) | 37.2 µM (inactive) |  |  |  | 
15 | CCCCN(CCCC)C(=O)C(=O)CC(=O)c1ccc(Br)cc1 | > 100 µM (inactive) | > 100 µM | > 100 µM (inactive) | > 100 µM (inactive) | > 100 µM (inactive) | > 100 µM (inactive) | > 100 µM (inactive) | > 100 µM (inactive) |  | > 100 µM (inactive) | > 100 µM (inactive) | > 100 µM (inactive) | > 100 µM (inactive) | > 100 µM (inactive) | > 100 µM (inactive) | > 100 µM (inactive) | > 100 µM (inactive) |  |  | 
16 | CC(=O)NNc1nc(C)c(C(=O)NNC(=O)C(=O)Nc2ccc([N+](=O)[O-])cc2C#N)s1 | > 100 µM (inactive) | > 100 µM | 38.1 µM (inactive) | > 100 µM (inactive) | 76 µM (inactive) | 63.5 µM (inactive) | > 100 µM (inactive) | > 100 µM (inactive) |  | 55.1 µM (inactive) | 52.7 µM (inactive) | > 100 µM (inactive) | > 100 µM (inactive) | > 100 µM (inactive) | > 100 µM (inactive) | 32.7 µM (inactive) | > 100 µM (inactive) |  |  | 
17 | C/C(=N\[N+](C)(C)C)c1ccc(C)c(C)c1 | 7.62 µM (inactive) | > 10 µM | 46.1 µM (inactive) |  | 49.1 µM (inactive) | 78.2 µM (inactive) | 55.1 µM (inactive) | > 100 µM (inactive) | 53.5 µM (inactive) | 51.3 µM (inactive) | 39.4 µM (inactive) | 0.752 µM (active) |  | 77.6 µM (inactive) | > 100 µM (inactive) | 35.4 µM (inactive) | 35.7 µM (inactive) | 64.3 µM (inactive) | > 10 µM (inactive) | > 10 µM (inactive)
18 | OCC12C3C4C5C3C1C5C42 (centres undefined) | > 100 µM (inactive) | > 100 µM | > 100 µM (inactive) |  | > 100 µM (inactive) | > 100 µM (inactive) | > 100 µM (inactive) | > 100 µM (inactive) | > 100 µM (inactive) | > 100 µM (inactive) | > 100 µM (inactive) | > 100 µM (inactive) |  | > 100 µM (inactive) | > 100 µM (inactive) | > 100 µM (inactive) | > 100 µM (inactive) | > 100 µM (inactive) | > 100 µM (inactive) | > 100 µM (inactive)
